In patent publication US9353067B2, “Heterocyclic compounds and uses thereof in the treatment of sexual disorders” (ATIR Holding S.A., priority 2011, dated 2016):

Assays:
PARP-1 = PARP-1 (Homo sapiens (Human), UniProt P09874); test: Universal Chemiluminescent PARP Assay; type: biochemical
Experimental: In addition, R-55 and its hydrochloride salt were assayed for PARP (poly(ADP-ribose)polymerase) inhibitory activity, as some quinazolinone derivatives, particularly derivatives comprising quinazolinone linked via a three-carbon moiety to substituted pyridinyl and piperazinyl moieties, have been identified as potent PARP inhibitors [U.S. Patent Application Publication No. 2004/0077667; Iwashita et al., FEBS Lett 579:1389-1393(2005); Hattori et al., J Med Chem 47:4151-4154(2004)]. PARP plays a natural role in repair of DNA damage, and inhibition of PARP may lead to undesirable side effects in any treatment of a sexual disorder.
Inhibition of PARP-1 was assayed using a Universal Chemiluminescent PARP Assay (Trevigen, Inc.).
The tested compounds were diluted from 2.1 mg of powder in 25 μl of DMSO. The tested compounds were diluted to 100 μM in 1% DMSO/99% ethanol. 3-Aminobenzamide (3-AB), a commercially available weak PARP inhibitor, was used as a positive control. The activity of PARP was quantified as relative light units (RLU). Each of the tested compounds was assayed twice.
In Assay 1, the 100 μM stock solution was diluted to 40 μM in 1×PARP buffer. The compounds were then serially diluted down to 0.4 μM. Each tested compound was
further diluted 1:4 during the assay, so the final concentrations ranged from 10 μM to 0.1 μM.
In Assay 2, the 100 μM stock was added to 1×PARP buffer to prepare samples with concentrations ranging from 40 μM to 2 μM. A 10 μM stock solution was added to 1×PARP buffer to prepare samples with concentrations of 1 μM and 0.4 μM. Each tested compound was further diluted 1:4 during the assay, so the final concentrations ranged from 10 μM to 0.1 μM.

Dopamine D1 receptor = Dopamine D1 receptor (Homo sapiens (Human), UniProt P21728); test: Competitive binding, SCH-23390 radioligand
Experimental: (§1) R-55 (which comprises a 3-hydroxyphenyl moiety) and the structurally related compounds N-108 (2-{[4-(2-ethoxyphenyl)piperazin-1-yl]methyl}quinazolin-4(3H)-one) and B-39 (7-chloro-2-((5,6-dihydro-4-(2-methoxyphenyl)pyridin-1(2H)-yl)methyl)quinazolin-4(3H)-one) were assayed for competitive binding to a variety of receptors, including D4.4 type dopamine receptor, in order to assess their specificity for D4.4 dopamine receptors.
(§2) The receptors were expressed as human recombinant proteins in CHO cells, except for adrenergic α1 and α2 receptors which were expressed in Wistar rat brain and cerebral cortex cells, respectively, and melanocortin MC4 receptor which was expressed in human recombinant HEK-293 cells. Binding was determined using the following radioligands in the presence of various concentrations of the tested compound:
(§3) 1.4 nM and 2 nM SCH-23390, respectively, for dopamine D1 and D5 receptors,
(§4) The binding assays were performed in accordance with procedures described in the literature (Greengrass & Bremner, 1979; Boyajian & Leslie, 1987; Broadhurst, 1988; Lewis, 2001; Sutton, 1995; Dearry, 1990; Zhou, 1990; Grandy, 1989; Hayes, 1992; Sokoloff, 1990; Van Tol, 1991; Van Tol 1992; Sunahara, 1991; Weinshank, 1991; Schioth, 1996; Schioth 1997; Martin & Humphrey, 1994; May, 2003; Wolf & Schutz, 1997).

Dopamine D5 receptor = Dopamine D5 receptor (Homo sapiens (Human), UniProt P21918); test: Competitive binding, SCH-23390 radioligand
Experimental: as §1, §2, §3, §4

[1] = target: D4.4 type dopamine receptor (Homo sapiens (Human), UniProt P21917); test: Competitive binding to D4.4 receptor ([3H]-YM-09151-2); conditions: human recombinant receptor in CHO cells, [3H]-YM-09151-2 0.3 nM
Experimental: R-55 (which comprises a 3-hydroxyphenyl moiety) and its isomers L-221 (comprising a 4-hydroxyphenyl moiety) and L-238 (comprising a 2-hydroxyphenyl moiety) were assayed for competitive binding to D2 SHORT and D4.4 type dopamine receptors, in order to assess their efficacy for treating sexual disorders. Both receptor types are expressed as human recombinant proteins in CHO cells, as described, for example, in Jarvis et al. (1973); Van Tol et al. (1991) and Van Tol et al. (1992).
Determination of binding to D4.4 receptor was performed using [^3H]-YM-09151-2 (70-87 Ci/mmol, 0.3 nM), as a radioligand, in the presence of various concentrations of the tested compound. Reactions were carried out in 50 mM TRIS-HCl (pH 7.4) containing 5 mM MgCl2, 5 mM EDTA, 5 mM KCl and 1.5 mM CaCl2, for 60 minutes at 22° C. The reaction was terminated by rapid vacuum filtration onto glass fiber filters. Radioactivity trapped onto the filters was determined (counted) and compared to control values in order to accurately evaluate any interaction of the tested compound(s) with the cloned dopamine D4.4 binding site.

[2] = target: Melanocortin MC4 receptor (Homo sapiens (Human), UniProt P32245); test: Competitive binding, NDP-α-MSH radioligand
Experimental: as §1, §2
0.02 nM NDP-α-MSH for melanocortin MC4 receptor,
as §4

Adrenergic α1 receptor = test: Competitive binding, prazosin radioligand; parameters: species or system Wistar rat
Experimental: as §1, §2
0.25 nM prazosin for adrenergic α1 receptor,
as §4

[3] = Solubility of R-55 in solvents for transdermal formulation; type: physicochemical
Experimental: To this effect, a stable oil-in-water emulsion was developed. Various solvents were tested in order to achieve an R-55 concentration of up to 20 mg/gram in the lipid phase of the emulsion, in order to achieve a total concentration of up to 10 mg/gram R-55.
The following organic solvents which are used in transdermal formulations were tested: […]

Chain of PARP-1 (P09874 whole entry): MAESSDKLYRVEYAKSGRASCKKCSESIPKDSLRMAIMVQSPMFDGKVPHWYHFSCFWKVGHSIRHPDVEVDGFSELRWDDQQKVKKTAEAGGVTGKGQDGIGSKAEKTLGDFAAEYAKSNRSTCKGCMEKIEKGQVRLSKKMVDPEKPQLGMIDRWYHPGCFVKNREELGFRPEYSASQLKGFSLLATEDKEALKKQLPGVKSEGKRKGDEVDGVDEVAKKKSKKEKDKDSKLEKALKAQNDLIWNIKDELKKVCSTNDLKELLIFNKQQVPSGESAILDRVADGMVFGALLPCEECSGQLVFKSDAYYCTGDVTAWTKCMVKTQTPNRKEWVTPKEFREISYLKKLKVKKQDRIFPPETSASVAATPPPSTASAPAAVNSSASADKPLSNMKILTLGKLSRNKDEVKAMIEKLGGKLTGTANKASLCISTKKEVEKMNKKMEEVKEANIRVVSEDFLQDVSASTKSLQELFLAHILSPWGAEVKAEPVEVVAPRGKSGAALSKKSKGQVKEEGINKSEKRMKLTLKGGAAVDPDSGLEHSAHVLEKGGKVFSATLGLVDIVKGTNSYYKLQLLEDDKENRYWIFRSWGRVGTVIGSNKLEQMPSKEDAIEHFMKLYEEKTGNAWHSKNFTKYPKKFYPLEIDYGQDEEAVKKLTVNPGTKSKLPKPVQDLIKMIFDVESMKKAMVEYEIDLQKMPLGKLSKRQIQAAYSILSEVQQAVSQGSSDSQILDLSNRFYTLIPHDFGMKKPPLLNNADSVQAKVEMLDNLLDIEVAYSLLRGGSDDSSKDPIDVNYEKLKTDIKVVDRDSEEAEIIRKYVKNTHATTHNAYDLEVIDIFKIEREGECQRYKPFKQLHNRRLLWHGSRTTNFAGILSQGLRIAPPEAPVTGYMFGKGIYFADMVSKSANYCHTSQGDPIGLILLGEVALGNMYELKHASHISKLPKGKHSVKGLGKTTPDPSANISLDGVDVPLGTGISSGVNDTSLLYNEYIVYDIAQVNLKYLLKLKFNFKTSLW
Chain of D4.4 type dopamine receptor (P21917 whole entry): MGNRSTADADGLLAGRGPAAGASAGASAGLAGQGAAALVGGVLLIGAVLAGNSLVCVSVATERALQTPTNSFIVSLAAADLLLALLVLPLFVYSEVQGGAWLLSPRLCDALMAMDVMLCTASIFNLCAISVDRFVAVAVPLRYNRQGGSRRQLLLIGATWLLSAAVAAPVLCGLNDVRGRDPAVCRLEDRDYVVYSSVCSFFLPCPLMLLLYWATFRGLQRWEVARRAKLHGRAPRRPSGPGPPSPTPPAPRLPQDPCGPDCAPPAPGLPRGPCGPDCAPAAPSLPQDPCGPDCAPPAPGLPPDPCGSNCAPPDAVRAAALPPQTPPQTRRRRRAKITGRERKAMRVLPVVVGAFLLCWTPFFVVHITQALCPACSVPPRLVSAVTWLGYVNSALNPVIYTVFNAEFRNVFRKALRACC
Chain of Dopamine D1 receptor (P21728 whole entry): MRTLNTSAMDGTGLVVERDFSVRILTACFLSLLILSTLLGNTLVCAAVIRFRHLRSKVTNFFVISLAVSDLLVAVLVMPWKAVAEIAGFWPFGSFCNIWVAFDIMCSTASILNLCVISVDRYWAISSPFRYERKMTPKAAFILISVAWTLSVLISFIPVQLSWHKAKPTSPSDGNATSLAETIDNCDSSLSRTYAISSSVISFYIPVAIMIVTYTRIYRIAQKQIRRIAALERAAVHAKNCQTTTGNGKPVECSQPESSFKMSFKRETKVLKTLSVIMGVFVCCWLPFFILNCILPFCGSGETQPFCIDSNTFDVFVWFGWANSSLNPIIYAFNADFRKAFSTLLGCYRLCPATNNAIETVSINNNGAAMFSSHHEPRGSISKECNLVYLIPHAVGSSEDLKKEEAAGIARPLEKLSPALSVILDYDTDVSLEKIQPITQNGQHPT
Chain of Melanocortin MC4 receptor (P32245 whole entry): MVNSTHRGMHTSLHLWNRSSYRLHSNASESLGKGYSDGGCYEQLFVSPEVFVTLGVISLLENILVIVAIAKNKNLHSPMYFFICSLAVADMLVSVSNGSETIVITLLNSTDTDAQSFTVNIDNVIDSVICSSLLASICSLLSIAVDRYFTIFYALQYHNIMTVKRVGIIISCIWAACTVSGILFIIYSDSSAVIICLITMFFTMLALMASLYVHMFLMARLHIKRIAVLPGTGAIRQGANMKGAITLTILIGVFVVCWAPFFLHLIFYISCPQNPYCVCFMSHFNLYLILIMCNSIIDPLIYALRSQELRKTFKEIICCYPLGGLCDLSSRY
Chain of Dopamine D5 receptor (P21918 whole entry): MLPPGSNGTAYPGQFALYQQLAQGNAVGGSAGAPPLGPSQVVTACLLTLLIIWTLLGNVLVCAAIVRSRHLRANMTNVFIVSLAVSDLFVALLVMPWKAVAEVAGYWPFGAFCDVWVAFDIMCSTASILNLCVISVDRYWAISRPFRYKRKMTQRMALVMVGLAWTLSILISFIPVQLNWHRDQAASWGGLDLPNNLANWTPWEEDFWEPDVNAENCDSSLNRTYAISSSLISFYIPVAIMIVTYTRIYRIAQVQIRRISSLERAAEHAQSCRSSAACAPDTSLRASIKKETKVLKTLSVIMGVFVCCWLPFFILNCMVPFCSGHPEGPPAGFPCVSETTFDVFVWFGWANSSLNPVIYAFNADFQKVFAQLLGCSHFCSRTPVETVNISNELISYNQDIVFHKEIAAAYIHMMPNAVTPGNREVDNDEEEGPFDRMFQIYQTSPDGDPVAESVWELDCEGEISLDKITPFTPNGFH

inhibition at 5 µM (PARP-1; 5 μM, average results from two assays): 19%
inhibition at 10 µM (PARP-1; 10 μM, average results from two assays): 21%
Competitive binding (%) at 5 μM of tested compound (Dopamine D1 receptor): −12%
Competitive binding (%) at 5 μM of tested compound (Dopamine D5 receptor): 0%
IC50 [1]: 500 nM
Competitive binding (%) at 5 μM of tested compound [2]: 3%
Competitive binding (%) at 5 μM of tested compound (Adrenergic α1 receptor): 10%
solubility of R-55 in propylene glycol ([3]; propylene glycol (PG)): less than 5 mg/gram
solubility of R-55 in propylene glycol with phosphatidyl choline ([3]; weight ratio of 4:1 PG:PC): 8 mg/gram
Structure (SMILES): O=c1[nH]c(CN2CCN(c3cccc(O)c3)CC2)nc2ccccc12 [Compound R-55, 2-((4-(3-hydroxyphenyl)piperazin-1-yl)methyl)quinazolin-4-one]
inhibition of PARP (in words) (PARP-1; Assay 1 and Assay 2, 0.1 μM to 10 μM): did not exhibit any significant inhibition of PARP
